We go through 25 compounds from US8318746B2, “Nitrogen-containing five-membered heterocyclic compound” (Takeda Pharmaceutical Company Limited, priority 2007, dated 2012).

System in one data set: not given
Test: not given
Settings: not given
Consider `O=C(O)Cc1cnc(-c2ccc(C(CC3CCOCC3)c3ccc(S(=O)(=O)C4CC4)cc3)[nH]2)s1` (stereo not shown) [Example 149, [2-(5-{1-[4-(cyclopropylsulfonyl)phenyl]-2-(tetrahydro-2H-pyran-4-yl)ethyl}-1H-pyrrol-2-yl)-1,3-thiazol-5-yl]acetic acid], for which the melting point (usually the temperature of the solid-liquid transition) was 246 to 247 °C (dec.).

`O=Cc1cnc(-c2ccc(C(CC3CCOCC3)c3ccc(S(=O)(=O)C4CC4)cc3)[nH]2)s1` (stereo not shown) [Example 158, 2-(5-{1-[4-(cyclopropylsulfonyl)phenyl]-2-(tetrahydro-2H-pyran-4-yl)ethyl}-1H-pyrrol-2-yl)-1,3-thiazole-5-carbaldehyde] registered a melting point of 175 to 176 °C.

For `CC(O)c1cnc(-c2ccc(C(CC3CCOCC3)c3ccc(S(=O)(=O)C4CC4)cc3)[nH]2)s1` (stereo not shown) [Example 166, Optically Active Form of 1-[2-(5-{1-[4-(cyclopropylsulfonyl)phenyl]-2-(tetrahydro-2H-pyran-4-yl)ethyl}-1H-pyrrol-2-yl)-1,3-thiazol-5-yl]ethanol], the melting point lay within 105 to 106 °C.

Turning to `CC(O)c1cnc(-c2ccc(C(CC3CCOCC3)c3ccc(S(=O)(=O)C4CC4)cc3)[nH]2)s1` (stereo not shown) [Example 167, Optically Active form of 1-[2-(5-{1-[4-(cyclopropylsulfonyl)phenyl]-2-(tetrahydro-2H-pyran-4-yl)ethyl}-1H-pyrrol-2-yl)-1,3-thiazol-5-yl]ethanol], the melting point was 112 to 114 °C.

`CC(O)c1cnc(-c2ccc(C(CC3CCOCC3)c3ccc(S(=O)(=O)C4CC4)cc3)[nH]2)s1` (stereo not shown) [Example 168, Optically Active Form of 1-[2-(5-{1-[4-(cyclopropylsulfonyl)phenyl]-2-(tetrahydro-2H-pyran-4-yl)ethyl}-1H-pyrrol-2-yl)-1,3-thiazol-5-yl]ethanol] displayed a melting point of 115 to 116 °C.

For `COC(=O)Nc1cc(-c2nccs2)[nH]c1C(CC1CCOCC1)c1ccc(S(=O)(=O)C2CC2)cc1` (stereo not shown) [Example 181, Methyl [2-{1-[4-(cyclopropylsulfonyl)phenyl]-2-(tetrahydro-2H-pyran-4-yl)ethyl}-5-(1,3-thiazol-2-yl)-1H-pyrrol-3-yl]carbamate], the melting point is 120 to 122 °C.

`CS(=O)(=O)c1ccc(C(CC2CCOCC2)c2cnc(-c3ccccn3)[nH]2)cc1Cl` (stereo not shown) [Example 183, 2-(5-{1-[3-chloro-4-(methylsulfonyl)phenyl]-2-(tetrahydro-2H-pyran-4-yl)ethyl}-1H-imidazol-2-yl)pyridine] displayed a melting point of 106 to 109 °C.

`O=S(=O)(c1ccc(C(CC2CCOCC2)c2ccc(-c3nnc(CO)s3)[nH]2)cc1)C1CC1` (stereo not shown) [Example 206, [5-(5-{1-[4-(cyclopropylsulfonyl)phenyl]-2-(tetrahydro-2H-pyran-4-yl)ethyl}-1H-pyrrol-2-yl)-1,3,4-thiadiazol-2-yl]methanol] showed a melting point of 208.5 to 208.6 °C.

With `CC(C)(O)C(O)c1ccc(-c2ccc(/C(=C/C3CCOCC3)c3ccc(S(=O)(=O)C4CC4)cc3)[nH]2)nc1` (stereo not shown) [Example 220, 1-(6-{5-[(E)-1-[4-(cyclopropylsulfonyl)phenyl]-2-(tetrahydro-2H-pyran-4-yl)ethenyl]-1H-pyrrol-2-yl}pyridin-3-yl)-2-methylpropane-1,2-diol], the melting point was 196 to 197 °C.

In turn, `CS(=O)(=O)c1ccc(C(CC2CCOCC2)c2ccc(-c3nnc(CO)s3)[nH]2)cc1` (stereo not shown) [Example 221, [5-(5-{1-[4-(methylsulfonyl)phenyl]-2-(tetrahydro-2H-pyran-4-yl)ethyl}-1H-pyrrol-2-yl)-1,3,4-thiadiazol-2-yl]methanol] registered a melting point of 199 to 201 °C.

`CC(CC1CCOCC1)(c1ccc(S(C)(=O)=O)cn1)c1ccc(-c2ccccn2)[nH]1` (stereo not shown) [Example 245, 2-[1-methyl-1-(5-(pyridin-2-yl)-1H-pyrrol-2-yl)-2-(tetrahydro-2H-pyran-4-yl)ethyl]-5-(methylsulfonyl)pyridine] showed a melting point of 135 to 136 °C.

Another data set has as its target T1, GST-hLGK1 (GST added to the amino terminal of human liver GK) (Homo sapiens, UniProt P35557).
T1 construct: with a BamHI site added to immediately before the initiation codon; made in house; host or cells: Escherichia coli BL21 (Stratagene), plasmid pGEX6P-2/hLGK1
T1 sequence (P35557 1-464 isoform P35557-3): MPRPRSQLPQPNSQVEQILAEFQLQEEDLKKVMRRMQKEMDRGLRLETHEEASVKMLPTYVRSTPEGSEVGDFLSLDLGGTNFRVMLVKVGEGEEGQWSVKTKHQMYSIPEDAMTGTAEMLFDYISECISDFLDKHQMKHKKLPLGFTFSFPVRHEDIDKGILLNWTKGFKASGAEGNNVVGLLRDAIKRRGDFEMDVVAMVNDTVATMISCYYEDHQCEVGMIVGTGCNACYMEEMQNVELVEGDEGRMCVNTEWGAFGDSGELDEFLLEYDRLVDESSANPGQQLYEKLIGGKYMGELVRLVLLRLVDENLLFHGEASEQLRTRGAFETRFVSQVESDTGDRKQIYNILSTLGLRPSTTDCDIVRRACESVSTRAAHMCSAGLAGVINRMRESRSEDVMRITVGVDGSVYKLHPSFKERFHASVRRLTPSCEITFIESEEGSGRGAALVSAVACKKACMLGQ
As to the kind of experiment: Measurement of GK activation value. Format: biochemical. To be noted: test compound final concentration 10 μmol/L; reaction rate divided by that of control group (50% DMSO without test compound); Mant-ATP substrate, D-glucose, 37° C., 60 min. As to the method:
To each well of a 384-well black plate (Nalge Nunc International K.K.) was added 5 μL of 50% dimethyl sulfoxide solution containing test compound diluted to 100 μmol/L. Then, GST-hLGK1 obtained in Reference Example 2A was diluted with measurement buffer (containing 50 mM HEPES (pH 7.4), 200 mM KCl, 5 mM MgCl2, 2.5 mM DTT and 50 μM 2′-(or-3′)—O—(N-methylanthraniloyl) adenosine 5′-triphosphate (Mant-ATP) (Jena BioScience)) to 6 μg/mL and 35 μL thereof was added to each well.
Each well was stood at 37° C. for 10 min, 25 mM D-glucose solution (10 μL) was added to start the reaction. The final concentration of the test compound was 10 μmol/L.
Each, well after the reaction was stood at 37° C. for 60 min, and the reaction was quenched by adding 25 μL of a quenching solution (containing 200 mM HEPES (pH 7.4), 20 mM MgCl2, 200 mM EDTA, 0.03% Triton-X 100, 0.3% Coating 3 reagent (Caliper Life Sciences, Inc.)).
2′-(or-3′)-O-(N-methylanthraniloyl)adenosine 5′-triphosphate (Mant-ATP, substrate) and Mant-ADP (reaction resultant product) were separated from each well after the reaction by a microchip type capillary electrophoresis apparatus 250 HTS (Caliper Life Sciences, Inc.). The reaction rate [(reaction resultant product peak height)/(reaction resultant product peak height+substrate peak height)×100(%)] was calculated from the ratio of the substrate peak height and reaction resultant product peak height obtained by fluorescence detection (excitation wavelength 355 nm, measurement wavelength 460 nm) and used as the index of GK activity.
As a control group, the reaction rate was calculated in the same manner as above except that “solution in 50% dimethyl sulfoxide (without test compound)” was used instead of “solution of test compound in 50% dimethyl sulfoxide”.
The reaction rate of the well (test compound addition group) added with the test compound was divided by the reaction rate of the control group and the obtained percentage was taken as the GK activation value (Emax) of the test compound.
As for `CS(=O)(=O)c1ccc(C(CC2CCCC2)c2ccc(-c3nccs3)[nH]2)cc1` (stereo not shown) [Example 1, 2-(5-{2-cyclopentyl-1-[4-(methylsulfonyl)phenyl]ethyl}-1H-pyrrol-2-yl)-1,3-thiazole], the Emax – broadly, the maximal effect, on the per cent scale that the assay sets – at 10 µM amounted to 195%.

With `CS(=O)(=O)c1ccc(C(CC2CCCC2)c2ccc(-c3ccccn3)[nH]2)cc1` (stereo not shown) [Example 2, 2-(5-{2-cyclopentyl-1-[4-(methylsulfonyl)phenyl]ethyl}-1H-pyrrol-2-yl)pyridine], the Emax at 10 µM came out at 168%.

For the compound `CS(=O)(=O)c1ccc(C(CC2CCCC2)c2ccc(-c3cnccn3)[nH]2)cc1` (stereo not shown) [Example 3, 2-(5-{2-cyclopentyl-1-[4-(methylsulfonyl)phenyl]ethyl}-1H-pyrrol-2-yl)pyrazine], the Emax at 10 µM is 180%.

Take `Cn1ccnc1-c1ccc(C(CC2CCCC2)c2ccc(S(C)(=O)=O)cc2)[nH]1` (stereo not shown) [Example 4, 2-(5-{2-cyclopentyl-1-[4-(methylsulfonyl)phenyl]ethyl}-1H-pyrrol-2-yl)-1-methyl-1H-imidazole]: the Emax at 10 µM is 227%.

`Cn1cnc(-c2ccc(C(CC3CCCC3)c3ccc(S(C)(=O)=O)cc3)[nH]2)c1` (stereo not shown) [Example 5, 4-(5-{2-cyclopentyl-1-[4-(methylsulfonyl)phenyl]ethyl}-1H-pyrrol-2-yl)-1-methyl-1H-imidazole]: the Emax at 10 µM turned out to be 167%.

Compound `Cn1ccc(-c2ccc(C(CC3CCCC3)c3ccc(S(C)(=O)=O)cc3)[nH]2)n1` (stereo not shown) [Example 6, 3-(5-{2-cyclopentyl-1-[4-(methylsulfonyl)phenyl]ethyl}-1H-pyrrol-2-yl)-1-methyl-1H-pyrazole] gave an Emax at 10 µM of 198%.

In the case of `O=S(=O)(c1ccc(C(CC2CCOCC2)c2ccc(-c3nccs3)[nH]2)cc1)C1CC1` (stereo not shown) [Example 7, 2-{5-[1-[4-(cyclopropylsulfonyl)phenyl]-2-(tetrahydro-2H-pyran-4-yl)ethyl]-1H-pyrrol-2-yl}-1,3-thiazole], the Emax at 10 µM was 179%.

`CCOC(=O)c1[nH]c(C(CC2CCCC2)c2ccc(S(C)(=O)=O)cc2)cc1C` (stereo not shown) [Example 8, Ethyl 5-{2-cyclopentyl-1-[4-(methylsulfonyl)phenyl]ethyl}-3-methyl-1H-pyrrole-2-carboxylate] had an Emax at 10 µM of 225%.

With `Cc1cc(C(CC2CCCC2)c2ccc(S(C)(=O)=O)cc2)[nH]c1C(=O)O` (stereo not shown) [Example 9, 5-{2-cyclopentyl-1-[4-(methylsulfonyl)phenyl]ethyl}-3-methyl-1H-pyrrole-2-carboxylic acid], the Emax at 10 µM came out at 173%.

For the compound `Cc1cc(C(CC2CCCC2)c2ccc(S(C)(=O)=O)cc2)[nH]c1C(N)=O` (stereo not shown) [Example 10, 5-{2-cyclopentyl-1-[4-(methylsulfonyl)phenyl]ethyl}-3-methyl-1H-pyrrole-2-carboxamide], the maximal effect (Emax) at 10 µM is 193%.

`Cc1cc(C(CC2CCCC2)c2ccc(S(C)(=O)=O)cc2)[nH]c1-c1nccs1` (stereo not shown) [Example 11, 2-(5-{2-cyclopentyl-1-[4-(methylsulfonyl)phenyl]ethyl}-3-methyl-1H-pyrrol-2-yl)-1,3-thiazole]: the maximal effect (Emax) at 10 µM was 160%.

`CC(C)C(=O)c1[nH]c(C(CC2CCCC2)c2ccc(S(C)(=O)=O)cc2)nc1F` (stereo not shown) [Example 14, 1-(2-{2-cyclopentyl-1-[4-(methylsulfonyl)phenyl]ethyl}-4-fluoro-1H-imidazol-5-yl)-2-methylpropan-1-one]: the Emax at 10 µM turned out to be 185%.

As for `CCCC(=O)c1[nH]c(C(CC2CCCC2)c2ccc(S(C)(=O)=O)cc2)nc1F` (stereo not shown) [Example 17, 1-(2-{2-cyclopentyl-1-[4-(methylsulfonyl)phenyl]ethyl}-4-fluoro-1H-imidazol-5-yl)butan-1-one], the Emax at 10 µM is 188%.

With `CS(=O)(=O)c1ccc(C(CC2CCCC2)c2ncc(C(=O)C3CCC3)[nH]2)cc1` (stereo not shown) [Example 21, Cyclobutyl(2-{2-cyclopentyl-1-[4-(methylsulfonyl)phenyl]ethyl}-1H-imidazol-5-yl)methanone], the Emax at 10 µM came to 157%.
